Results published in patent US20230257383A1, “COMPOUND SERVING AS BTK INHIBITOR, PREPARATION METHOD THEREFOR, AND USE THEREOF” (CHENGDU HYPERWAY PHARMACEUTICALS CO., LTD., priority 2020, published 2023).

Tests used:
[1] = Liver microsome metabolic stability test (human); type: in vitro ADME; settings: liver microsomes, read-out: CLint (μL/min/mg) Human
Procedure: (§1) 1: To the sample wells of T0, T5, T10, T20, T30, T60 and NCF60, 10 μL of the test or reference working solution and 80 μL of microsome working solution (hepatic microsome with a protein concentration of 0.5 mg/mL) were added, and to Blank60 well, only the microsome working solution was added. Then samples of the Blank60, T5, T10, T20, T30 and T60 other than TO and NCF60 were placed in a 37° C. water bath and pre-incubated for about 10 min.
(§2) 2: To the TO sample well, 300 μL of stop solution (containing 200 ng/mL tolbutamide and 200 ng/mL labetalol in acetonitrile solution) was added first, followed by 10 μL of NADPH regeneration system working solution.
(§3) 3: After the pre-incubation of Blank60, T5, T10, T20, T30 and T60 incubation plates, 10 μL of NADPH regeneration system working solution was added to each sample well to start the reaction, and 10 μL of 100 mM potassium phosphate buffer was added to the NCF60 sample well.
(§4) 4: After incubation for an appropriate time (such as 5, 10, 20, 30 and 60 min), to each test sample well and control well of the Blank60, T5, T10, T20, T30, T60 and NCF60 plates, 300 μL of stop solution was added to terminate the reaction.
(§5) 5: All sample plates were shaken to mix well and centrifuged at 4000 rpm for 20 min, and 100 μL of the supernatant of the test sample or control sample was taken and diluted with 300 μL of pure water for LC-MS/MS analysis.
(§6) 6: Data analysis: T1/2 and CLint(mic) (μL/min/mg) values were calculated according to the first-order elimination kinetics. The first-order elimination kinetics equation was: […]

[2] = test system: TMD8 mouse subcutaneous xenograft tumor; assay: TMD8 pharmacodynamic model test; type: in vivo; settings: same dose of 10 mg/kg, FIG. 1
Procedure: Test Example 7: TNMD8 Pharmacodynamic Model Test
Human diffuse large B-cell lymphoma TMD8 cells were monolayer-cultured in vitro in RPNHI1640 medium with […], 100 U/mL penicillin and 100 μg/mL streptomycin, in a 37° C., […] incubator. Routine digestion with trypsin-EDTA was performed twice a week for passaging. When the cell density was […] and the number reached the requirement, cells were harvested, counted and inoculated. 0.2 ml (1×10^7 cells) of TMVD8 cells (added with matrigel at a volume ratio of 1:1) were subcutaneously inoculated on the right back of each mouse. The mice were administered in groups when the average tumor volume reached about 137 mm^3. Tumor diameters were measured twice a week with vernier calipers. The tumor volume was calculated by the formula V=0.5 a×b^2, where a and b represent the long and short diameters of the tumor, respectively.

[3] = Liver microsome metabolic stability test (rat); type: in vitro ADME; settings: liver microsomes, read-out: CLint (μL/min/mg) Rat
Procedure: as §1, §2, §3, §4, §5, §6

[4] = test system: TMD8 cell proliferation; assay: In vitro cell proliferation inhibitory activity test (CTG), TMD8; type: cell-based; settings: Homo sapiens, TMD8, 72 h, TMD8 cells
Procedure: (§7) Test Example 4: In Vitro Cell Proliferation Inhibitory Activity Test
(§8) Cells were cultured in 1640 medium, added with 10% inactivated FBS and 1% double antibiotics, and cultured at 37° C. and 5% CO2.
(§9) (1) Cells were routinely cultured until the cell density was 80%-90%, and the cells were harvested when their number reached the requirement.
(§10) (2) Cells were resuspended with corresponding culture medium, counted, and prepared into cell suspension at appropriate density.
(§11) (3) The cell suspension was added to a 96-well plate, 100 μL per well.
(§12) (4) Cells were cultured overnight in a 37° C., 5% CO2 incubator.
(§13) (1) The compounds to be tested were diluted with DMSO to make a stock solution with a final concentration of 20 mM for later use.
(§14) (2) The stock solution was diluted 10 times from 20 mM to 2 mM with DMSO, and then diluted 3 times from 2 mM to 9 concentrations.
(§15) (3) The blank control wells were cells plus 0.5% DMSO, as high-reading control wells.
(§16) (4) Wells with no cells and only medium were used as low-reading control wells.
(§17) 4: Cell treatment with compound
(§18) (1) 24 h after the cells were plated, the compounds acted alone, and 99 μL of growth medium was added to each well, followed by 1 μL of the compound prepared in step 3. The plate was shaken gently to mix uniformly, and then placed in a 37° C., 5% CO2 incubator.
(§19) (2) The cell plate was placed in an incubator for 72 h.
(§20) 5: Detection by CTG method
(§21) (1) The cell plate to be tested was placed at room temperature for 30 min, and 100 μL of medium was discarded from each well.
(§22) (2) 100 μL of CTG reagent (CelltiterGlo kit) was added to each well, placed on a fast shaker for 2 min, and stood at room temperature in the dark for 30 min.
(§23) (3) The chemiluminescent signal value was read with the Envision instrument.
(§24) IC50 was calculated by using GraphPad Prism 8 software. The IC50 (half inhibitory concentration) of the compound was derived using the following nonlinear fitting formula, and the results are shown in the following table:
(§25) Y=Bottom+(Top−Bottom)/(1+10^((Log IC50−X)×HillSlope))
(§26) X: log value of compound concentration, Y: inhibition rate (% inhibition)
(§27) Inhibition rate (% inhibition)=(reading of high-reading control well-reading of compound well)/(reading of high-reading control well-reading of low-reading control well)×100

[5] = test system: NCI-N87 cell proliferation; assay: In vitro cell proliferation inhibitory activity test (CTG), NCI-N87; type: cell-based; settings: Homo sapiens
Procedure: as §7, §8, §9, §10, §11, §12, §13, §14, §15, §16, §17, §18, §19, §20, §21, §22, §23, §24, §25, §26, §27

[6] = test system: BT474 cell proliferation; assay: In vitro cell proliferation inhibitory activity test (CTG), BT474; type: cell-based; settings: Homo sapiens, BT-474, BT474 cell proliferation
Procedure: as §7, §8, §9, §10, §11, §12, §13, §14, §15, §16, §17, §18, §19, §20, §21, §22, §23, §24, §25, §26, §27

[7] = test system: DOHH2 cell proliferation; assay: In vitro cell proliferation inhibitory activity test (CTG), DOHH2; type: cell-based; settings: Homo sapiens, DOHH-2
Procedure: as §7, §8, §9, §10, §11, §12, §13, §14, §15, §16, §17, §18, §19, §20, §21, §22, §23, §24, §25, §26, §27

[8] = Pharmacokinetic test, oral, SD rats; type: in vivo; settings: oral 10 mg/kg
Procedure: Each test compound was administered orally (10 mg/kg, 3 rats in each group) to SD rats for pharmacokinetic study. […] Animals were fasted overnight before oral administration, and fed again after 4 h of administration. […] At each collection time point, 3 whole blood samples were collected at a the collection volume of about 0.2-0.3 mL. […] The collected plasma was stored at −20° C. before analysis. 20 μL of plasma sample was added into a 1.6 mL 96-well deep-well plate, added with 200 μL of working internal standard solution (the same volume of vehicle was added to the blank instead of internal standard), vortexed for 1 min, and centrifuged at 5800 rpm for 10 min. 100 μL of the supernatant was added to a 96-well injection plate for LC-MS/MS analysis.

| microsomal CLint [1] [µL/min/mg] | microsomal CLint [3] [µL/min/mg] | IC50 [6] [nM] | Cl [8] [mL/h/kg] | SMILES | inhibitory effect against the tumor compared with ARQ-531 and ibrutinib [2] | IC50 [4] [nM] | IC50 [5] [nM] | IC50 [7] [nM] |
| --- | --- | --- | --- | --- | --- | --- | --- | --- |
| < 9.6 | 15.7 | – | – | COc1cccc(Oc2ccc(-c3nc(C4CCC(CO)OC4)n4ccnc(N)c34)cc2)c1C#N (single isomer, unassigned) [Example 89-P1] | significantly better inhibitory effect against the tumor than the clinical phase II drug ARQ-531 and the marketed drug ibrutinib | 4.3 | – | – |
| – | – | 153 | – | Nc1nccn2c(C34CCC(CO)(CC3)OC4)nc(-c3ccc(C(F)(F)c4cccc(F)c4)cc3)c12 [Example 142] | – | – | 106 | – |
| < 9.6 | 13.7 | – | 48 | Nc1nccn2c(C34CCC(CO)(CC3)OC4)nc(-c3ccc(C(=O)Nc4cc(C(F)(F)F)ccn4)cc3)c12 [Example 118] | significantly better inhibitory effect against the tumor than the clinical phase II drug ARQ-531 and the marketed drug ibrutinib | 23.8 | – | 250 |
